The values below come from publication PMC7443514 (Bioorganic & medicinal chemistry, 2020).

Test [1] addresses T1, SARM1 TIR domain (bacterial lysate) (Homo sapiens, UniProt Q6SZW1).
T1 sequence (Q6SZW1 561-724): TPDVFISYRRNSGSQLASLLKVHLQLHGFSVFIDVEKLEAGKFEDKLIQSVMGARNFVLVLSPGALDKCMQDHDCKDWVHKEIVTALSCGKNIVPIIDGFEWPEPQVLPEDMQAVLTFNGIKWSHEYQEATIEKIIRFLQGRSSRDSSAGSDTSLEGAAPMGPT
It counts as biochemical. Conditions: ENAD 0-400 μM; for Inhibition Mechanism: bacterially expressed TIR domain lysate.

A further test relates to SARM1. To be noted: substrate analog; cited from earlier work.
For test [2], the target named is T2, purified SARM1 TIR domain (Homo sapiens, UniProt Q6SZW1).
T2 sequence (Q6SZW1 561-724): T1 sequence (Q6SZW1 561-724)
The test is described as follows: Dose response, ENAD assay, purified TIR domain. It counts as biochemical. To be noted: purified TIR domain (20 μM), 500 μM ENAD.

In test [3] the target is T1, SARM1 TIR domain (bacterial lysate). To be noted: cited from earlier work.

Structures are written as SMILES. Like-named read-outs stand apart in the source and are kept apart here.

On to `C[C@H]1c2cccc(O)c2C(=O)C2=C(O)[C@]3(O)C(=O)C(C(N)=O)=C(O)[C@@H](N(C)C)[C@@H]3[C@@H](O)[C@@H]21.Cl` [Doxycycline Hydrochloride, Doxycycline hydrochloride], for which the “Inhibition Mechanism” value in test [1] was “Noncompetitive”.

For the compound `NC(=O)c1ccc[n+]([C@@H]2O[C@H](COP(=O)([O-])OP(=O)(O)OC[C@H]3O[C@@H](n4cnc5c4ncn4ccnc54)[C@H](O)[C@@H]3O)[C@@H](O)[C@H]2O)c1` [ENAD, Nicotinamide 1,N^6-ethenoadenine dinucleotide], in the test on SARM1, the Km is 35 ± 15 µM and the kcat is 0.05 ± 0.04 s⁻¹.

For `NC(=O)N/N=C/c1ccc([N+](=O)[O-])o1` [Nitroflurazone], in test [1], the “Inhibition Mechanism” value was “Noncompetitive”.

`Cl.Nc1ccc(/N=N/c2ccccc2)c(N)n1` [Phenazopyridine Hydrochloride, Phenazopyridine hydrochloride]: the “Inhibition Mechanism” value in test [1] is recorded as “Competitive”.

Consider `[O-][n+]1ccccc1[S-].[O-][n+]1ccccc1[S-].[Zn+2]` [Pyrithone Zinc, Pyrithone zinc], for which, in test [1], the “Inhibition Mechanism” value is “Noncompetitive”.

For the compound `[Cl-].[Cl-].[Zn+2]` [Zinc Chloride, Zinc chloride], the Ki in test [1] (bacterially expressed TIR domain (300 nM) lysate) and in test [3] was 3.3 ± 0.1 µM each time. Further, the “Inhibition Mechanism” value in test [1] was “Noncompetitive”; in test [3], “noncompetitive”. The compound also had an IC50 in test [2] of 10 ± 1 µM.

By Km is commonly meant the substrate concentration at which the rate is half of its maximum. Broadly, the kcat is the number of substrate molecules converted per active site and unit of time at saturation. As a reminder, the Ki is the equilibrium dissociation constant of an inhibitor or competing ligand from its target. For orientation: IC50 means the concentration that inhibits the measured activity by half.
